Drawing on ChEMBL document CHEMBL1909046, “DrugMatrix in vitro pharmacology data”, this text covers IC50 and Ki for 20 molecules.

Where a SMILES comes first, the peptide text is derived from it. Bridges are numbered along the chain shown (N, C = ends). [ ]: non-standard residue; d: D form. The star is where a group is joined. Threoninol(2S,3R) = C[C@@H](O)[C@H](CO)N*

Data set [1] has as its target T1, Alpha-2A adrenergic receptor (Homo sapiens, UniProt P08913). Note: in other assays of this panel Not Active means under 50% inhibition at 10 µM.
T1 sequence (P08913 whole entry): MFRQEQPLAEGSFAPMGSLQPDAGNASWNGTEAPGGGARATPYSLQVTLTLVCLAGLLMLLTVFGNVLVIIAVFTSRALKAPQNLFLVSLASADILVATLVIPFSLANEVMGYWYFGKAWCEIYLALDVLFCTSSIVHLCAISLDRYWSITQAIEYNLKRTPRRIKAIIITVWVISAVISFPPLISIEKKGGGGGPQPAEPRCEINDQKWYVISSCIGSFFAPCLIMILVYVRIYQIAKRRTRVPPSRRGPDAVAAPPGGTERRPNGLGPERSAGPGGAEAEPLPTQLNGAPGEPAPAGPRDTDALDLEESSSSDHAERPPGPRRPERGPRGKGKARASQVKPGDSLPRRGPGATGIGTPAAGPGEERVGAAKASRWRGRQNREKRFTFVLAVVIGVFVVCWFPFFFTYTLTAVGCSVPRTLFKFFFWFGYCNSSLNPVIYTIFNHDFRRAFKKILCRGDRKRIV
Format: cell membranes, Sf9, Membrane. Particulars: for Ki: read-out: Ki.

Data set [2] deals with Beta-1 adrenergic receptor (Homo sapiens, UniProt P08588). The data set is described as follows: DRUGMATRIX: Adrenergic beta1 radioligand binding (ligand: [125I] Cyanopindolol). Format: cell membranes, CHO-K1, Membrane. Particulars: cho-k1; Not Active = under 50% inhibition at 10 µM.
Sequence of Beta-1 adrenergic receptor (P08588 whole entry): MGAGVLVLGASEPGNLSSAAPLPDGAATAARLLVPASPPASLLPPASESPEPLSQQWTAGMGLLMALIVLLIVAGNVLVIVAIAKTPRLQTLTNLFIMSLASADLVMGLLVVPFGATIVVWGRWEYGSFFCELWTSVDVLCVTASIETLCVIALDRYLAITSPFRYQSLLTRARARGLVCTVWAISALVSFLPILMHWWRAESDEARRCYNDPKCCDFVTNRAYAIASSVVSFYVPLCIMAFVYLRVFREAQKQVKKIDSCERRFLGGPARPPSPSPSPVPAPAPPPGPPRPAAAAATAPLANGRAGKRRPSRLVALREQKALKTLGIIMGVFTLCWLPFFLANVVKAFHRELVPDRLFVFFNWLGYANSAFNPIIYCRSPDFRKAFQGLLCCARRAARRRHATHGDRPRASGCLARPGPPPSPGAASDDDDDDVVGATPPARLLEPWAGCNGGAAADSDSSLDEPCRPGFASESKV
In data set [3] the target is Protein phosphatase 3 catalytic subunit alpha (Homo sapiens, UniProt Q08209). Further details: species or system Escherichia coli.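 Note: inhibition of calcineurin (PP2B) enzyme activity, measured with DiFMUP as the substrate; in other assays of this panel Not Active means under 50% inhibition at 10 µM.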
In data set [4] the target is T2, Polyunsaturated fatty acid lipoxygenase ALOX15 (Oryctolagus cuniculus, UniProt P12530).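 Note: inhibition of 15-lipoxygenase enzyme activity measured with linoleic acid as the substrate; in other assays of this panel Not Active means under 50% inhibition at 10 µM.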
T2 sequence (P12530 whole entry): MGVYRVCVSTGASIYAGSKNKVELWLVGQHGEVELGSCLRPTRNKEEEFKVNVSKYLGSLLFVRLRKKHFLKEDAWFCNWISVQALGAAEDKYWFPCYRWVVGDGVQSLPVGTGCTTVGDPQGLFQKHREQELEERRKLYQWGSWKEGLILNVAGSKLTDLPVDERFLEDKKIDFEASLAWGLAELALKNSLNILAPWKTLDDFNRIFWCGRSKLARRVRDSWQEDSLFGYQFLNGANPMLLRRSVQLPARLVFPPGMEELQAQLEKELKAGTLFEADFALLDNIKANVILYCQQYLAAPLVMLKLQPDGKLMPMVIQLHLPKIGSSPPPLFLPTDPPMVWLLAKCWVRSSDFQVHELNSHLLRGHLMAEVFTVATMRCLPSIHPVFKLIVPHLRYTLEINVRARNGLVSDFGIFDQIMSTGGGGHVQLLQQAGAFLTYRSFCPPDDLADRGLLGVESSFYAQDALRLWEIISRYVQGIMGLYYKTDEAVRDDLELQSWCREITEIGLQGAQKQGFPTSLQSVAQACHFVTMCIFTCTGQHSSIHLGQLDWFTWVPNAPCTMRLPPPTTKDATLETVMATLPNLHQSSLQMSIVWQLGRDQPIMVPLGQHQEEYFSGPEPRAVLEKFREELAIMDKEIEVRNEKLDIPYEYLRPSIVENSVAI
The experiment in a line: biochemical. Format: tissue-based, Reticulocytes.

For another data set, the target named is T3, Cathepsin G (Homo sapiens, UniProt P08311).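 Note: inhibition of Cathepsin G enzyme activity, tested on an AMC-conjugated peptide substrate; in other assays of this panel Not Active means under 50% inhibition at 10 µM.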
T3 sequence (P08311 whole entry): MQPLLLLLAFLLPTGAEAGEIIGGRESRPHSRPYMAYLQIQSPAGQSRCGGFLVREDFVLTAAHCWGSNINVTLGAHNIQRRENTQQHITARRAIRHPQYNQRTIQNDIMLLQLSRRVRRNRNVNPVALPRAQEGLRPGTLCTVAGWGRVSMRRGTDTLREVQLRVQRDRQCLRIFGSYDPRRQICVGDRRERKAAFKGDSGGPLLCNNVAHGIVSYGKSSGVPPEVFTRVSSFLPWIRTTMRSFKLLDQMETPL
Format: tissue-based. Particulars: neutrophil.

Data set [5] deals with Prostaglandin G/H synthase 1 (Homo sapiens, UniProt P23219). The data set is described as follows: biochemical. The data set is classed as tissue-based, Platelet. Particulars: platelet.
Sequence of Prostaglandin G/H synthase 1 (P23219 whole entry): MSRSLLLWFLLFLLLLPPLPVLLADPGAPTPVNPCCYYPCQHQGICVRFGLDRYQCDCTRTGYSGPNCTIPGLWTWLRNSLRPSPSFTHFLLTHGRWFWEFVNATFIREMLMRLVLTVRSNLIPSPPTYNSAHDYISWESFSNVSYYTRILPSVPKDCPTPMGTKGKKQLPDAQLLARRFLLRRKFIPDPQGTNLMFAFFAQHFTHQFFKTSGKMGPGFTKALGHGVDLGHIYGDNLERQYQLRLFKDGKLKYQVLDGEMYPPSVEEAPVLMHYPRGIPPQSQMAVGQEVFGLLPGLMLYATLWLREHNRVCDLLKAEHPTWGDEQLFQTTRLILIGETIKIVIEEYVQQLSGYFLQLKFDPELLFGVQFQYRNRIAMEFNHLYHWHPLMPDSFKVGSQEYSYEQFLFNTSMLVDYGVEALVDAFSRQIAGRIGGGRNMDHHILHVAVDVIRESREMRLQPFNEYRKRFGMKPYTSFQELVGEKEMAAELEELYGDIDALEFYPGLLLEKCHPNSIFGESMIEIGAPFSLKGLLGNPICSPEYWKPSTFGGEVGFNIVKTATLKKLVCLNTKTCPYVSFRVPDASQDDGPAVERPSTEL
In data set [6] the target is Voltage-gated inwardly rectifying potassium channel KCNH2 (Homo sapiens, UniProt Q12809). The following applies: hek293. Note: in other assays of this panel Not Active means under 50% inhibition at 10 µM.
Sequence of Voltage-gated inwardly rectifying potassium channel KCNH2 (Q12809 whole entry): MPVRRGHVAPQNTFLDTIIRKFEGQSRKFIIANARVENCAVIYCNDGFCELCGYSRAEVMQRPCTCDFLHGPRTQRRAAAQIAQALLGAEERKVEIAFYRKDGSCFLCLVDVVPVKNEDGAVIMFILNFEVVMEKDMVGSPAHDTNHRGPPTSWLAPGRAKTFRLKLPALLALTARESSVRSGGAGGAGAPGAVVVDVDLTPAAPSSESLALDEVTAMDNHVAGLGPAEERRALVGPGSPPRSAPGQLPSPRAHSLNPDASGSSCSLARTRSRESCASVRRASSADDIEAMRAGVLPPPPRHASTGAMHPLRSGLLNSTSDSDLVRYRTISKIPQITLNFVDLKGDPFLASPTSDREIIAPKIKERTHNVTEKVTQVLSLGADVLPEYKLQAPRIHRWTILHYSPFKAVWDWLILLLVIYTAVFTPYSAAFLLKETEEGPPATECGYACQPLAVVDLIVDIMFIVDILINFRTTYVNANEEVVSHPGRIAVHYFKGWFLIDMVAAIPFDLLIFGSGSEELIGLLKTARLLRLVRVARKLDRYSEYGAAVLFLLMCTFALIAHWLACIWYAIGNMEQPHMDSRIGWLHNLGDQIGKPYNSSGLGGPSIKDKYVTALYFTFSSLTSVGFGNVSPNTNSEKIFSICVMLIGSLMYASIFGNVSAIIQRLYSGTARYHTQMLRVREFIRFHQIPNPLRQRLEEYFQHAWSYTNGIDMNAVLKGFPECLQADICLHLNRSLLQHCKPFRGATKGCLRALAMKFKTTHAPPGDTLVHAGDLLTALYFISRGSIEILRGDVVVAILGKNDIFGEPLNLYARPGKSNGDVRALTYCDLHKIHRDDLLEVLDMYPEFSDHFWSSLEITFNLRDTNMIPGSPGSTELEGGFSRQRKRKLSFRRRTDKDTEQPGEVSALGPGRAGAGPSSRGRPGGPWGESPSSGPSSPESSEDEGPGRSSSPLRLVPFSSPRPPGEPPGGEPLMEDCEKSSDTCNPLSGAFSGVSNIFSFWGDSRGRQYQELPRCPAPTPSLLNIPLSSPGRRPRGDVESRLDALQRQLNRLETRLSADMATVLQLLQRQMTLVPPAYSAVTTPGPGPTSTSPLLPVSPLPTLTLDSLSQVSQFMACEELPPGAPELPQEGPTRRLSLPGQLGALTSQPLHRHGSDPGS

Consider `COc1ccccc1C(=O)N1CCC(Cc2ccccc2)CC1`, for which the IC50 result (in data set [1] (sf9); in data set [2]; in data set [3]; in data set [4] (reticulocytes); at Cathepsin G; in data set [5]) was “Not Active” throughout. Besides, the IC50 entry in data set [6] is “Not Active”. For the same molecule, the Ki result in data set [6] is reported as “Not Active”.

Take `Cc1ccccc1C(=O)N1CCC(Cc2ccccc2)CC1`: the IC50 result (in data set [1] (sf9); in data set [2]; in data set [3]; in data set [4] (reticulocytes); at Cathepsin G; in data set [5]) was “Not Active” in each case. In data set [6], the IC50 entry was “Not Active”. Besides, in data set [6], the Ki result is on record as “Not Active”.

As to `O=C1CC[C@H](N2C(=O)c3ccccc3C2=O)C(=O)N1`, the IC50 entry (in data set [1] (sf9); in data set [2]; in data set [3]; in data set [4] (reticulocytes); against Cathepsin G; in data set [5]) was “Not Active” throughout. For the same molecule, the half-maximal inhibitory concentration (IC50) result in data set [6] is recorded as “Not Active”. Besides, the Ki result in data set [6] is recorded as “Not Active”.

With `N=C(Nc1ccccc1)Nc1ccccc1`, the IC50 result (in data set [1] (sf9); in data set [2]; in data set [3]; in data set [4] (reticulocytes); against Cathepsin G; in data set [5]) was “Not Active” in each case.

`C[C@@H](O)[C@H](CO)NC(=O)[C@@H]1CSSC[C@H](NC(=O)[C@H](N)Cc2ccccc2)C(=O)N[C@@H](Cc2ccccc2)C(=O)N[C@H](Cc2c[nH]c3ccccc23)C(=O)N[C@@H](CCCCN)C(=O)N[C@@H]([C@@H](C)O)C(=O)N1` (H-[dF]CF[dW]KTC-{Threoninol(2S,3R)}; disulfide 2-7): the IC50 result (in data set [1] (sf9); in data set [2]; in data set [3]; in data set [4] (reticulocytes); against Cathepsin G; in data set [5]) was “Not Active” each time. The IC50 result in data set [6] is listed as “Not Active”. Besides, in data set [6], the Ki entry is recorded as “Not Active”.

Regarding `S=C=Nc1cccc2ccccc12` [1-NAPHTHYLISOTHIOCYANATE], the IC50 in data set [1] (read-out: IC50) is 6270 nM; in data set [2], “Not Active”; in data set [3], “Not Active”; in data set [4] (reticulocytes), “Not Active”; on Cathepsin G, “Not Active”; in data set [5] it was “Not Active”. Besides, in data set [6], the IC50 entry is on record as “Not Active”. In addition, the Ki in data set [1] is 2350 nM; in data set [6], “Not Active”.

On to `CCCC(=O)Nc1ccc(OCC(O)CNC(C)C)c(C(C)=O)c1` (configuration not stated) [ACEBUTOLOL], for which the IC50 result (in data set [1] (sf9); in data set [3]; in data set [4] (reticulocytes); against Cathepsin G; in data set [5]; in data set [6]) was “Not Active” throughout. Also, in data set [6], the Ki result is “Not Active”.

`Nc1c(CC(=O)O)cccc1C(=O)c1ccc(Br)cc1` [BROMFENAC]: the IC50 result (in data set [1] (sf9); in data set [2]; in data set [3]; in data set [4] (reticulocytes); on Cathepsin G; in data set [6]) was “Not Active” throughout. The Ki entry in data set [6] is listed as “Not Active”.

In the case of `CC1=C(C(=O)O)N2C(=O)[C@@H](NC(=O)[C@H](N)c3ccccc3)[C@H]2SC1` [CEPHALEXIN ANHYDROUS], the IC50 result (in data set [1] (sf9); in data set [2]; in data set [3]; in data set [4] (reticulocytes); against Cathepsin G; in data set [5]) was “Not Active” each time.

Take `O=C(N[C@H](CO)[C@H](O)c1ccc([N+](=O)[O-])cc1)C(Cl)Cl` [CHLORAMPHENICOL]: the IC50 entry (in data set [1] (sf9); in data set [2]; in data set [3]; in data set [4] (reticulocytes); on Cathepsin G; in data set [5]) was “Not Active” in each case.

For `C/C=C/C[C@@H](C)[C@@H](O)[C@H]1C(=O)N[C@@H](CC)C(=O)N(C)CC(=O)N(C)[C@@H](CC(C)C)C(=O)N[C@@H](C(C)C)C(=O)N(C)[C@@H](CC(C)C)C(=O)N[C@@H](C)C(=O)N[C@H](C)C(=O)N(C)[C@@H](CC(C)C)C(=O)N(C)[C@@H](CC(C)C)C(=O)N(C)[C@@H](C(C)C)C(=O)N1C` [CYCLOSPORINE], the IC50 entry (in data set [1] (sf9); in data set [2]; in data set [4] (reticulocytes); against Cathepsin G; in data set [5]) was “Not Active” in each case.

With `O=C(O)Cc1ccccc1Nc1c(Cl)cccc1Cl` [DICLOFENAC], the IC50 result (in data set [1] (sf9); in data set [2]; in data set [3]; in data set [4] (reticulocytes); on Cathepsin G; in data set [6]) was “Not Active” throughout. Also, the Ki result in data set [6] was “Not Active”.

Consider `C[C@]12CC[C@@H]3c4ccc(O)cc4CC[C@H]3[C@@H]1CC[C@@H]2O` [ESTRADIOL], for which the IC50 entry in data set [1] (sf9) is “Not Active”; in data set [2], “Not Active”; in data set [3], “Not Active”; in data set [4] (read-out: IC50), 11300 nM; at Cathepsin G, “Not Active”; in data set [5], “Not Active”.

On to `CN(C)c1ccc(C(=C2C=CC(=[N+](C)C)C=C2)c2ccc(N(C)C)cc2)cc1.[Cl-]` [GENTIAN VIOLET], for which the IC50 in data set [1] (read-out: IC50) is 536 nM; in data set [3] it was “Not Active”; in data set [4] (reticulocytes), “Not Active”; against Cathepsin G, “Not Active”; in data set [5], “Not Active”; in data set [6], “Not Active”. For the same molecule, the Ki in data set [1] was 201 nM; in data set [6], “Not Active”.

On to `CC(C)Cc1ccc(C(C)C(=O)O)cc1` (configuration not stated) [IBUPROFEN], for which the IC50 result (in data set [1] (sf9); in data set [2]; in data set [3]; in data set [4] (reticulocytes); against Cathepsin G; in data set [6]) was “Not Active” in each case. For the same molecule, the inhibitory constant (Ki) result in data set [6] is listed as “Not Active”.

Consider `COc1ccc2c(c1)c(CC(=O)O)c(C)n2C(=O)c1ccc(Cl)cc1` [INDOMETHACIN], for which the IC50 result (in data set [1] (sf9); in data set [2]; in data set [3]; in data set [4] (reticulocytes); against Cathepsin G; in data set [6]) was “Not Active” throughout. Further, the Ki result in data set [6] is recorded as “Not Active”.

Take `CC(C(=O)O)c1cccc(C(=O)c2ccccc2)c1` (configuration not stated) [KETOPROFEN]: the IC50 entry (in data set [1] (sf9); in data set [2]; in data set [3]; in data set [4] (reticulocytes); at Cathepsin G; in data set [6]) was “Not Active” in each case. Moreover, the Ki result in data set [6] is given as “Not Active”.

In the case of `COc1ccc2cc([C@H](C)C(=O)O)ccc2c1` [NAPROXEN], the IC50 result (in data set [1] (sf9); in data set [2]; in data set [3]; in data set [4] (reticulocytes); on Cathepsin G) was “Not Active” each time.

On to `COC(=O)C1=C(C)NC(C)=C(C(=O)OCC(C)C)C1c1ccccc1[N+](=O)[O-]` (configuration not stated) [NISOLDIPINE], for which the IC50 result (in data set [1] (sf9); in data set [2]; in data set [3]; in data set [4] (reticulocytes); against Cathepsin G; in data set [5]) was “Not Active” in each case.

For the molecule `CCn1cc(C(=O)O)c(=O)c2cc(F)c(N3CCN(C)CC3)cc21` [PEFLOXACIN], the half-inhibitory concentration (IC50) entry (in data set [1] (sf9); in data set [2]; in data set [3]; in data set [4] (reticulocytes); on Cathepsin G; in data set [5]) was “Not Active” in each case.
